PubChem BioAssay (NCI)
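GI50: concentration for 50% inhibition of growth. TGI: total growth inhibition.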

Columns and labels:
Assay in all cases: inhibition of tumour cell growth, NCI panel, 384-well format
[1] = system: OVCAR-4 ovarian
[2] = system: M14 melanoma
[3] = system: HCT-116 colon
[4] = system: LOX IMVI melanoma
[5] = system: KM12 colon
[6] = system: SR leukemia
[7] = system: TK-10 renal
[8] = system: COLO 205 colon
[9] = system: NCI-H460 NSCLC
[10] = system: A549 NSCLC
[11] = system: MCF7 breast
[12] = system: A498 renal
[13] = system: MOLT-4 leukemia

C[C@H](NC(=O)c1c(C(F)F)nn(C)c1Oc1cccc(C(F)(F)F)c1)c1ccc(C(=O)O)cc1
GI50 [1]: > 100 µM
TGI [1]: > 100 µM
GI50 [2]: > 100 µM
TGI [2]: > 100 µM
GI50 [3]: > 100 µM
TGI [3]: > 100 µM
GI50 [4]: > 100 µM
TGI [4]: > 100 µM
GI50 [5]: > 100 µM
TGI [5]: > 100 µM
GI50 [6]: > 100 µM
TGI [6]: > 100 µM
GI50 [7]: > 100 µM
TGI [7]: > 100 µM
GI50 [8]: > 100 µM
TGI [8]: > 100 µM
GI50 [9]: > 100 µM
TGI [9]: > 100 µM
GI50 [10]: > 100 µM
TGI [10]: > 100 µM
GI50 [11]: > 100 µM
TGI [11]: > 100 µM
GI50 [12]: > 100 µM
TGI [12]: > 100 µM
GI50 [13]: > 100 µM
TGI [13]: > 100 µM
